Common to all, as to experiment: inhibition of tumour cell growth, NCI panel, 48 h
Experiment [1] has as its system SW-620 colon.
Experiment [2] concerns T-47D breast.
Experiment [3] concerns COLO 205 colon.
The test system of experiment [4] is K-562 leukemia.
For experiment [5], the system named is SN12C renal.
Experiment [6] relates to HL-60(TB) leukemia.
Experiment [7] has as its system CAKI-1 renal.
Experiment [8] has as its system IGROV1 ovarian.
The test system of experiment [9] is PC-3 prostate.
For experiment [10], the system named is HS 578T breast.

Structures are written as SMILES.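 The compound was tested at five concentrations on cells cultured in 96-well plates, with a 48-hour exposure period. GI50 = concentration required for 50% inhibition of growth. TGI denotes the concentration required for complete inhibition of growth.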 A value given as a limit tells only on which side of the number the result lay.

With `COc1ccc2c(c1)O/C(=C\c1ccc([N+](=O)[O-])o1)C2=O`, the GI50 is 0.294 µM in experiment [1]; 1.4 µM in experiment [2]; 1.18 µM in experiment [3]; 0.352 µM in [4]; 2.45 µM in [5]; 1.8 µM in experiment [6]. For the same compound, the GI50 is 0.452 µM in experiment [7], 1.35 µM in experiment [8], 2.14 µM in [9] and 2.36 µM in experiment [10]. The TGI in [1] was 1.39 µM; in experiment [2], 8.83 µM; in [3] it was 3.12 µM; in [4], 1.91 µM; in experiment [5], more than 100 µM; in [6], 5.69 µM. The TGI in [7] is 2.12 µM; in experiment [8] it was 7.3 µM; in experiment [9] it was more than 25.5 µM; in experiment [10] it was 7.32 µM.

`N=C(N)c1ccc(CS(=O)(=O)F)cc1`: the GI50 in [1], in [2], in [3], in experiment [4], in experiment [5] and in experiment [7] was more than 100 µM throughout. Also, the GI50 in [8], in [9] and in [10] was more than 100 µM each time. The TGI in experiment [1], in [2], in experiment [3], in [4], in experiment [5] and in experiment [7] was more than 100 µM throughout. Moreover, the TGI in experiment [8], in experiment [9] and in experiment [10] was more than 100 µM each time.

As for `Cc1cc(NCCCNc2ccnc3cc(Cl)ccc23)nc(Nc2ccc(C(=O)N3CCCCC3)cc2)n1`, the GI50 in experiment [1] was 2.12 µM; in experiment [2], 2.15 µM; in experiment [3], 1.8 µM; in experiment [4], 1.98 µM; in experiment [5] it was 2.33 µM; in experiment [7] it was 2.51 µM. The GI50 in experiment [8] was 3.09 µM; in experiment [9], 3.9 µM; in [10] it was 2.68 µM. Also, the TGI in [1] was 4.52 µM; in [2] it was 6.2 µM; in [3], 3.62 µM; in experiment [4], 6.4 µM; in experiment [5] it was 5.52 µM; in experiment [7], 7.38 µM. In addition, the values for the TGI in experiment [8], in experiment [9] and in experiment [10] were 12.7 µM, 14.4 µM and 6.38 µM, respectively.

In the case of `Oc1ccccc1/C=N/Nc1nc2ccccc2s1`, the GI50 is 16.3 µM in experiment [1]; 2.11 µM in [2]; 4.7 µM in [3]; 6.48 µM in experiment [4]; 22.9 µM in experiment [5]; 2.95 µM in experiment [7]. Further, the GI50 in [8] was 2.77 µM; in [9] it was 11 µM; in experiment [10], 8.84 µM. Besides, the TGI in experiment [1], in [2], in experiment [3], in experiment [4], in [5] and in [7] was more than 100 µM throughout. For the same compound, the TGI in experiment [8] is more than 100 µM; in [9], more than 100 µM; in experiment [10], 58 µM.

`COc1cc(-c2nn(-c3ccc(NC(=O)Nc4ccc(Cl)c(C(F)(F)F)c4)cc3)cc2-c2ccncc2)ccc1Cl`: the GI50 in experiment [1] is 1.82 µM; in [2], 2.66 µM; in [3] it was 1.67 µM; in experiment [4], 1.59 µM; in [5], 2.6 µM; in [7], 1.29 µM. Besides, the GI50 in experiment [8] is 2.06 µM; in experiment [9], 1.67 µM; in experiment [10] it was 1.91 µM. The TGI in experiment [1] amounted to 3.58 µM; in experiment [2], 7.37 µM; in [3], 3.29 µM; in experiment [4] it was 5.58 µM; in experiment [5], 8.82 µM; in experiment [7], 3.54 µM. For the same compound, the TGI was 6.07 µM in experiment [8], more than 100 µM in experiment [9] and 4.96 µM in experiment [10].

For `O=S1(=O)OCc2ccccc21`, the TGI in experiment [1], in [2], in experiment [3], in experiment [4], in experiment [5] and in experiment [6] was more than 100 µM throughout. For the same compound, the TGI in experiment [8], in [9] and in experiment [10] was more than 100 µM in each case.

Consider `COc1ccc(C(=O)OC2C(OC3C(O)COC(O[C@H]4C[C@H]5[C@@H]6CC=C7C[C@@H](O)CC[C@]7(C)[C@H]6CC[C@]5(C)[C@H]4[C@H](C)C(=O)CCC(C)C)C3OC(=O)C(C)C)OCC(O)C2O)cc1` (stereo not given in full), for which the GI50 is 0.0125 µM in [1]; 0.0358 µM in experiment [2]; 0.0575 µM in experiment [3]; 0.0127 µM in [4]; 3.02 µM in experiment [5]; 0.0172 µM in experiment [7]. Further, the GI50 was 0.0219 µM in [8], 0.00821 µM in experiment [9] and 0.00343 µM in experiment [10]. For the same compound, the TGI was 0.389 µM in [1]; 3.08 µM in [2]; 0.325 µM in [3]; 0.516 µM in experiment [4]; 6.53 µM in experiment [5]; 1.64 µM in [7]. The TGI was determined as 4.22 µM in [8], 0.446 µM in experiment [9] and 0.0441 µM in experiment [10].

Take `CN(C)C(=O)C(NCCO)c1ccccc1` (stereo not given): the TGI in experiment [1], in experiment [2], in experiment [3], in experiment [5], in experiment [7] and in [8] was more than 100 µM throughout. In addition, the TGI in [9] and in experiment [10] was more than 100 µM in each case.

For the compound `COc1ccc2nc(-c3ccc(Cl)cc3)cc(-c3nnc(SCC(=O)Nc4ccc(/C(C)=N\O)cc4)o3)c2c1`, the GI50 is 1.15 µM in experiment [1]; 0.981 µM in experiment [2]; 1.15 µM in [3]; 2.83 µM in experiment [4]; 1.8 µM in experiment [5]; more than 50 µM in [6]. Also, the GI50 in experiment [8] is 3.93 µM; in [9] it was 1.29 µM; in [10] it was 2.77 µM. The TGI is 2.54 µM in experiment [1]; 3.97 µM in experiment [2]; 3.53 µM in [3]; more than 50 µM in experiment [4]; 7.29 µM in [5]; more than 50 µM in [6]. Further, the TGI in experiment [8] was determined as 20.6 µM; in experiment [9], 2.97 µM; in experiment [10] it was 17.9 µM.

Source of the values: PubChem BioAssay (NCI).
